From patent publication US11866708B2, “Tailored modulation of gene regulation programs via functional enhancer RNA” (Board of Regents, The University of Texas System, priority 2019, dated 2024)

Test system: TNFSF10
Assay: TNFSF10 and eRNA expression with TIC10 treatment
Type: cell-based, human
Settings: TIC10 treatment 48 hours; FIG. 6F left
Description: For the negative control experiment, 5 uM of TIC10 (SML1068, Sigma-Aldrich) was treated for 48 hrs to activate the apoptosis pathway by inducing the level of TNFSF10 expression.

Question: Which TNFSF10 expression does the source give for `Cc1ccccc1CN1C(=O)C2=C(CCN(Cc3ccccc3)C2)N2CCN=C12` [TIC10] here?
Answer: induced TNFSF10 expression significantly

Question: And the “expression of the virus inducible eRNAs associated with the TNFSF10 gene” value?
Answer: did not affect expression
